Measurements as given in US7365223B2, “Method for selective targeting of apoptotic cells and small molecule ligands used thereof” (NST NeuroSurvival Technologies Ltd, priority 2003, dated 2008).

Columns and labels:
[1] = test system: Jurkat cells undergoing apoptosis induced by anti-Fas Ab; experiment: Selective binding to apoptotic Jurkat cells; flow-cytometric (FACS) analysis; assay type: cell-based, human; details: 20 minutes
Procedure: Cultured Jurkat cells (human adult T cell leukemia cells) were grown in suspension in RPMI medium (Beit-Haemek, Israel), supplemented with 10% of fetal calf serum (FCS), 4 mM of L-glutamine, 1 mM of sodium pyruvate, […] and antibiotics (100 units/ml penicillin; 100 μg/ml streptomycin and 12.5 units/ml of nystatin). Prior to induction of apoptosis, medium was replaced with HBS buffer (10 mM HEPES; 140 mM NaCl, 1 mM CaCl). Apoptosis was then triggered by treatment with anti-Fas Ab (0.1 μg/ml; 3 hrs). As a result, a marked percentage of the cells became apoptotic, and is regarded as newly formed early apoptotic cells. Non-treated cells served as control. Both control cells and apoptotic cells were then incubated for 20 minutes with 100 μM of NST705. […] The analysis shown in FIG. 1 describes the uptake of NST705 compound into the population of apoptotic cells in control and anti-fas treated cultures.
(§1) In the dot plot shown in FIG. 1A and FIG. 1B, the left lower quadrant represents the healthy, non-stained fraction of cells. The right lower quadrant represents the newly formed population of cells in the early stages of apoptosis. These cells still maintain membrane integrity and thus exclude PI. Cells binding both NST705 and PI, i.e., cells in the late stages of apoptosis are represented in the right upper quadrant.
(§2) Cultured Jurkat cells (human adult T cell leukemia cells) were grown in suspension in RPMI medium (Beit-Haemek, Israel), supplemented with 10% of fetal calf serum (FCS), 2 mM of L-glutamine, 1 mM of sodium pyruvate, […] and antibiotics (100 units/ml penicillin; 100 μg/ml streptomycin and 12.5 units/ml of nystatin). Prior to induction of apoptosis, medium was replaced with HBS buffer (10 mM HEPES; 140 mM NaCl, 1 mM CaCl). Apoptosis was then triggered by treatment with anti-Fas Ab (0.1 μg/ml; 3 hrs). As a result, a marked percentage of the cells became apoptotic. Non-treated cells served as control. Both control cells and apoptotic cells were then incubated for 20 minutes with 100 μM of NST703. Subsequently, cells were co-stained with propidium iodide (P). Binding of NST703 to the control and apoptotic cells was determined by flow cytometric (FACS) analysis using Becton-Dickinson cell sorter and CellQuest software (excitation was at 356 nm and emission was measured at 530 nm).
as §1, with “2A” for “1A”, “2B,” for “FIG. 1B,”, “NST703” for “NST705”
as §2, with “penicilin;” for “penicillin;”, “DC.” for “NST703.”, “(PI).” for “(P).”, “DC” for “NST703”
FIG. 4A and FIG. 4B are each a representative FACS dot plot, showing that activation of apoptosis leads to a marked uptake of DC by cells in the early stages of apoptosis (FIG. 4B), as compared to control cells (FIG. 4A). […]

[2] = test system: apoptotic cells in B16-F10 murine melanoma tumor; experiment: Targeting in-vivo to apoptotic cells in tumor, murine melanoma; fluorescent microscopy; set-up: species or system mice; details: 2 mg/mouse intravenously, 2 hours
Procedure: Tumors, and especially aggressive malignancies such as melanoma are characterized, in addition to the abnormal tissue proliferation, also by marked apoptosis of tumor cells. The performance of DC in selective targeting of these apoptotic cells within the tumor was therefore examined Mice (c57/black; 8 weeks old male mice) were injected subcutaneously bilaterally, in the flank, with murine melanoma-derived B16-F10 cells (ATCC CRL-6475; 10^5 cells/mice in a volume of 100 μl). Prior to injection, the cell line was maintained in culture in Dulbecco's modified Eagle's medium (DMEM), supplemented with 4 mM of L-glutamine; 100 units/ml of penicillin; 100 μg/ml of streptomycin; 12.5 units/ml of nystatin and 10% of fetal calf serum (FCS). Tumors were allowed to grow for 14 days, by which they reached a diameter of 5-7 mm.
(§3) The DC compound (2 mg/mouse in NaPpi buffer, pH. 7.40) was injected intravenously. Two hours later, the mice were scarified and the tumors, as well as other organs were taken, and immediately frozen in liquid nitrogen. Frozen sections were then prepared from each of the organs. Uptake of DC by the tumors or other organs was assessed by fluorescent microscopy.
The performance of NST730 in selective targeting to apoptotic cells within a tumor examined as described in Example 7. Mice (c57/black; 8 weeks old male mice) were injected subcutaneously bilaterally, in the flank, with murine melanoma-derived B16-F10 cells (ATCC CRL-6475; 10^5 cells/mice in a volume of 100 μl). Tumors were allowed to grow for 14 days, by which they reached a diameter of 5-7 mm.
as §3, with “The NST730 compound (2” for “The DC compound (2”, “Uptake of NST730 by the” for “Uptake of DC by the”, “tumors or by other organs” for “tumors or other organs”

apoptotic HeLa S3 cells = experiment: Selective binding to apoptotic HeLa cells in vitro; flow-cytometric analysis; assay type: cell-based; details: culture aged 96 hours; FACS
Procedure: HeLa S3 cells (ATCC CCL-2.2) were grown in Dulbecco's modified Eagle's medium (DMEM), supplemented with 2 mM of L-glutamine; 100 units/ml of penicillin; 100 μg/ml of streptomycin; 12.5 units/ml of nystatin and 10% of fetal calf serum (FCS). Cells were seeded at a density of 5×10^6 cells/plate, on a […] culture plates, in a volume of 10 ml, and were allowed to age by incubating the culture for 96 hours without exchange of the growth medium. As a result, a marked percentage of the cells became apoptotic. Cells were harvested using a cell scraper, separated to single cells by passage through a syringe with a 18 G needle, and re-suspended at a density of 10^6 cells/ml in PBS buffer at pH=7.4. […] The analysis shown in FIG. 10 describes the uptake of NST601 compound into the population of apoptotic cells.

[3] = test system: chemotherapy-induced apoptotic cells of lymphoma tumors; experiment: In-vivo targeting to chemotherapy-induced apoptotic cells of lymphoma tumors; fluorescent microscopy; details: DBA/2 mice, Taxol 20 mg/Kg; 1.4 mg/mouse injected 24 h later, 2 hours
Procedure: Lymphoma tumors were induced in 8 weeks old male DBA/2 mice (Harlan laboratories, UK) by subcutaneous injection of lymphoma cells. The cells, from a chemically-induced LY-R clone were obtained from ATCC(CRL-1722), and maintained by subsequent passages in mice. For induction of tumors, 5×10^5 cells in a volume of 100 μl were injected into the thigh region in mice. […] Twenty-four hours later, NST705 was injected systemically at a dose of 1.4 mg/mouse. Two hours later, mice were sacrificed and tumors were frozen in liquid nitrogen. Cryosections were then prepared and serial slides were subjected to either hematoxylin & eosin (H&E) staining or fluorescent microscopy evaluation (excitation wavelength of 360 nm, emission at 530 nm), using an Olympus fluorescent microscope (model IX70).

[4] = test system: neuronal cell death following MCA occlusion; experiment: Detection of neuronal cell death following middle cerebral artery (MCA) occlusion; assay type: in vivo; details: Balb/C mice; 70 mg/kg intravenously 22 hours after MCA cauterization, 2 hours
Procedure: (§4) Cerebral ischemia was induced in Balb/C mice (10-12 weeks) by cauterization of the middle cerebral artery. Mice were anesthetized, and the temporal bone was exposed. Scraping off the bone up to a minimal hole allowed exposure of the artery subjecting it to cauterization. 22 hours later, NST732 (70 mg/kg) was injected intravenously. Two hours later (at 24 h from induction of the injury), mice were anesthetized and sacrificed, and brains were removed into liquid nitrogen for histopathological analysis of the frozen sections. Four μm thick sections were prepared for fluorescent microscopic analysis to follow the cells stained positively with NST732.
as §4, with “cauterization,” for “cauterization.”, “NST730” for “NST732”, “sections, as described in Example 11.” for “sections. Four μm thick sections were prepared for fluorescent microscopic analysis to follow the cells stained positively with NST732.”

[5] = test system: murine lymphoma cells undergoing cell death induced by irradiation; experiment: Detection of cell death induced by irradiation in vivo; murine lymphoma; details: irradiated DBA mice (3 fractions of 6 Gray); 70 mg/kg intravenously, 2 hours
Procedure: DBA mice (5-6 weeks old males, Jackson laboratories) were injected subcutaneous with 10^6 lyS cells in 50 μl saline and were examined daily for tumor formation. At days 8, 9 and 10 mice were placed in a Perspex box and irradiated with 6MV x-rays apparatus (Linac) in fractions of 6 Gray each. Each mouse received a dose of about 1.0 centiGray per monitor unit. At day 13 (72 hours following the last irradiation) mice were injected intravenously with NST 732 (70 mg/kg, dissolved in Tris base containing 25% cremophore RH410, pH=9). After 2 hours, tumors were excised, frozen in liquid nitrogen and submitted for histopathological assessment.

[6] = apoptotic cells (anti-Fas Ab 0.1 μg/ml, 3 hrs), 100 μM compound
[7] = non-treated control cells, 100 μM compound

For CN(C)c1cccc2c(S(=O)(=O)O)cccc12 [DA, dansylic acid], the “percent of identified early apoptotic events within the population (cells binding compound, excluding PI)” value (shortened to “percent”) ([1]; apoptotic cells (anti-Fas Ab 0.1 μg/ml, 3 hrs), 250 μM compound) was 77% and the “percent” value ([1]; non-treated control cells, 250 μM compound) was 4.2%.
With CN(C)c1cccc2c(S(=O)(=O)N[C@@H](CS)C(=O)O)cccc12 [DC, dansylcysteine] the “percent” value [1, 6] was 76%, the “percent” value [1, 7] was 2.3% and the “binding to normal, viable tissue” value ([2]; small intestine tissue of the same animal) was “lack of binding”. For the same compound, the “binding to tumor cells undergoing apoptosis” value [2] was “Extensive binding” and the “staining of viable tumor cells” value [2] was “remain unstained”.
CCCCN(C)c1cccc2c(S(=O)(=O)O)cccc12 [NST601, 5-Butylmethylamino-naphtalene-1-sulfonic acid] was tested, and the “binding to apoptotic cells” value (apoptotic HeLa S3 cells) was “selective binding” and the “staining of cells that do not undergo a process of cell death” value (apoptotic HeLa S3 cells) was “remained non-stained”.
CCCCN(C)c1cccc2c(S(=O)(=O)NCC(=O)O)cccc12 [NST703, (5-Butylmethylamino-naphtalene-1-sulfonyl)-glycine] was tested, and the “percent” value [1, 6] was 75.6% and the “percent” value [1, 7] was 3.27%.
In the case of CCCCN(CCCC)c1cccc2c(S(=O)(=O)N[C@@H](CC(=O)O)C(=O)O)cccc12 [NST705, (5-dibutylamino-naphthalene-1-sulfonyl)-L-aspartic acid], the “percent” value [1, 6] is reported as 70.8%, the “percent” value [1, 7] is reported as 3% and the “uptake by tumor cells undergoing cell death” value [3] is reported as “marked uptake”. The “uptake by viable, non-apoptotic tumor cells” value [3] was “not observed”.
In the case of CN(C)c1cccc2c(S(=O)(=O)NC(C)(CF)C(=O)O)cccc12 (stereo not drawn) [NST730], the “binding to other non-target tissues” value ([2]; colon, kidney, spleen and heart) is reported as “lack of significant binding”, the “binding to normal, viable tissue” value ([2]; muscle tissue of the same animal) is reported as “lack of binding” and the “binding to tumor cells undergoing apoptosis” value [2] is reported as “Extensive binding”. The “staining of viable tumor cells” value [2] was “remain unstained”, the “binding to cells in the infarcted (damaged) area” value [4] was “extensive binding” and the “binding to cells outside the infarcted area” value [4] was “did not manifest significant binding”.
With CCC(CF)(NS(=O)(=O)c1cccc2c(N(C)C)cccc12)C(=O)O (stereo not drawn) [NST732] the “binding to tumor cells undergoing apoptosis” value [5] was “extensive binding”, the “binding to cells in the infarcted (damaged) area” value [4] was “extensive binding” and the “binding to cells outside the infarcted area” value [4] was “did not manifest significant binding”.
